Test results published in article PMC9241644, “Evaluation of Novel Quorum Sensing Inhibitors Targeting Auto-Inducer 2 (AI-2) for the Control of Avian Pathogenic Escherichia coli Infections in Chickens” (Microbiology Spectrum, 2022).
Values joined by “and” are separate entries in the source; they are usually repeats but may differ in a detail not shown here. Equal entries are not always repeated.

Tests used:
[1] = PK profile of QSI-5 and SDM in chicken plasma (LC-MS); assay type: in vivo, chickens
Experimental: The amount of QSI-5 and SDM in chicken plasma was measured using LC-MS. The optimized dose of QSI-5 (1 mg/L) and the therapeutic dose of SDM (495.323 mg/L) (0.05%) were administered orally as a single dose. Blood was collected individually from five chickens per group at different time points (0 h, 0.5 h, 1 h, 2 h, 4 h, 8 h, 12 h, 24 h) after administration of QSI-5 and SDM in vacutainer EDTA (10.8 mg) tubes (Becton, Dickinson, NJ, USA), blood was placed on ice for 1 h to clot, plasma was separated by centrifuging at 2,000 × g for 10 min at 4°C and stored at −80°C °C for LC-MS analysis. Plasma protein was precipitated by adding cold methanol and 10 μL (1 μg/mL) of an internal standard (IS) heavy-labeled phenylalanine (dissolved in 0.1% formic acid) was added to each 100 μL aliquot. The mixture was then incubated at −20°C for 30 min and centrifuged at 1300 × g for 25 min at 2°C. Sixty μL of the supernatant was pipetted into LC vials. For standard calibration, solutions of 0.0, 0.001, 0.005, 0.01, 0.05, 0.1, 0.5, 1, and 5 μg/mL of QSI-5 and SDM were prepared and 20 μL of each standard solution was added to 80 μL of cold methanol and IS as mentioned above. All samples were run by injecting 5 μL on an Agilent Poroshell 120 SB-C18 (2 × 100 mm in diameter, 2.7 μm particle sizes). The LC system (Thermo Fisher Scientific UltiMate 3000 HPLC) was used with solvent A (10 mM ammonium formate and 0.1% formic acid) and solvent B (methanol with a flow rate of 200 μL/min). The gradient was set to 2% B at 2 min, increased from 2% to 20% at 5 min, 40% at 7.5 min, and reached 90% after 9 min. The gradient was sustained at 90% B for 11 min and then decreased to 2% at 12 min and was held for equilibration until the run ended after 15 min. The mass spectrometer (Thermo Fisher Scientific Quantiva Triple Quadrupole) was set to multiple reactions monitoring mode (SRM) with a heated electrospray ionization source (ESI) in positive mode at 3.5 kV. Drug targets were monitored for QSI-5 at transitions 309.26→105.1 m/z and 309.26→203.15 m/z at 28 and 20 V collision energy, respectively, and for SDM at transitions 311.11→156.11 m/z and 311.11→245.07 m/z at 21 and 18 V CE. The analysis of plasma samples was performed in Campus Chemical Instrumentation Center, Mass Spectrometry and Proteomics Facility (CCIC, MS&P), The Ohio State University (https://live-ccic.pantheonsite.io/MSP).

[2] = tested on: Rif^R APEC O78; assay: Comparative efficacy of QSI-5 and SDM in field simulated conditions (built-up floor litter); assay type: in vivo, Escherichia coli
Excerpt: Chickens were monitored for clinical signs for 8 DPI. Any chickens moribund during this period were humanely euthanized and necropsied to determine bacterial load in the internal organs (liver, heart, lung, and kidney). Internal organs were aseptically collected, weighed and suspended in 1× PBS, the amount of PBS added was adjusted based on the organ size to make a suspension, the organ size and amount of PBS added were included in the final calculation of the CFU. The samples were homogenized, serially diluted 10-fold, plated on MacConkey agar (Remel, CA, USA) containing 50 μg/mL rifampicin, and incubated at 37°C for 24 h to determine the CFU/g. Pathological lesions severity in internal organs (pericarditis, perihepatitis, airsacculitis, and lung congestion) was scored as described previously ([21], [59]). At 8 DPI, the remaining chickens were humanely euthanized and necropsied, lesions were scored, and the APEC load was quantified in internal organs as described above.
To compare the efficacy of QSI-5 with an antibiotic SDM currently used in the field, chickens (n = 70) were raised on built-up floor litter in a field-simulated conditions. One-day-old broiler chickens (Case Farms Ohio Hatchery, OH, USA) were used for conducting the experiment. The optimized dose of QSI-5 (1 mg/L) and the therapeutic dose of SDM (495.323 mg/L) (0.05%) were given in drinking water daily for 7 days (starting from day 5 to day 11 of age). The volume of drinking water needed daily was determined as described above. On day 6, the chickens were infected s/c with Rif^r APEC O78 (5 × 10^6 CFU/chicken, s/c). PC (0.05% DMSO treated and infected) and NC (non-infected and non-treated) control groups were included. The mortality was recorded daily until the end of the experiment (42 days of age: slaughter age). At 8 DPI, half of the chickens from each group were necropsied, lesions were scored, and the APEC load was quantified in the internal organs as described above. The other half of the chickens were raised until day 42 to determine the impact of treatment on the body weight gain and feed intake. To calculate the FCR, body weight was measured once every week and feed intake was recorded every day. On day 42, the remaining chickens were euthanized, body weight was measured and 10 chickens from each group were randomly selected and necropsied, lesions and APEC load were assessed in the internal organs.

[3] = single oral dose (QSI-5 1 mg/L, SDM 495.323 mg/L)

SMILES: Cc1ccc(CN2CCN(CCCc3ccccc3)CC2)cc1 [QSI-5]
- half-life ([1]; single oral dose): short half-life
- time by which excreted ([1]; single oral dose): ≤ 24 HPT
- maximum concentration in plasma (Cmax) [1, 3]: 0.76 ng/mL
- time of peak concentration in plasma [1, 3]: 2 HPT
- time at which absorbed / detected in blood ([1]; single oral dose (QSI-5 1 mg/L, SDM 495.323 mg/L), h posttreatment): 0.5 HPT
- Average lesion severity, Lung ([2]; Table S3, PC 1.85): 0.21
- Average lesion severity, Liver ([2]; Table S3, PC 2.52): 1.68
- Average lesion severity, Airsac ([2]; Table S3, PC 3.36): 1.25
- Average lesion severity, Heart ([2]; Table S3, PC 3.58): 1.93
- Average APEC load, Liver ([2]; Table S3, PC 7.24): 4.95 Log CFU/ g of tissue
- Average APEC load, Lung ([2]; Table S3, PC 7.68): 4.93 Log CFU/ g of tissue
- Average APEC load, Kidney ([2]; Table S3, PC 7.73): 5.06 Log CFU/ g of tissue
- Average APEC load, Heart ([2]; Table S3, PC 7.92): 5.46 Log CFU/ g of tissue
- Mortality rate % (Nr.) ([2]; Table S3, until 42 days of age, QSI-5 (8/63), SDM (19/65), PC 45.6 (31/68)): 12.7%
- reduction in mortality compared with the PC group ([2]; built-up floor litter, QSI-5 1 mg/L, SDM 495.3 mg/L (0.05%) in drinking water 7 days, s/c APEC O78 5 × 10^6 CFU/chicken): 88.4% and 72.2%
